# Experimental data reported in patent US10940139B2, “Compounds that interact with the Ras superfamily for the treatment of cancers, inflammatory diseases, rasopathies, and fibrotic disease” (Shy Therapeutics LLC, priority 2017, dated 2021).
# System: TNFα production in RAW 264.7 macrophage cell line
# Assay: Mouse TNF alpha quantification assay (LPS-stimulated macrophages, ELISA)
# Assay type: cell-based
# Conditions: RAW264.7, RAW 264.7 murine leukemia virus transformed macrophage cell lines, LPS stimulation, read-out: TNF-α % Inhibition at 30 μM
row,Structure (SMILES),inhibition at 30 µM [%]
1,O=C(CCc1cnn(-c2ccccc2)c1)Nc1nnc(-c2ccccc2)[nH]1,1 to 25
2,CN(CCc1ccncc1)C(=O)c1csc2c(O)nc(N)nc12,0
3,O=C(c1csc2c(O)nc(-c3ccccn3)nc12)N1CCC(c2ccccc2)CC1,51 to 75
4,COC1CC(CNc2nc(-c3ccccn3)nc3scc(-c4ccccc4)c23)CCC1OCC(N)=O (stereo not shown),76 to 100
5,OCCn1ncc2c1CCCC2Nc1nc(-c2ccccn2)nc2scc(-c3ccccc3)c12 (stereo not shown),26 to 50
6,CC(CC(=O)N1CCOCC1)c1nc(-c2ccccn2)nc2scc(-c3ccccc3)c12 (stereo not shown),1 to 25
7,COc1cncc(CCNC(=O)c2csc3nc(-c4ccccn4)nc(N4CCOCC4)c23)c1,0
8,O=C(c1csc2c(O)nc(-c3cccnc3)nc12)N1CCNC(Cc2cccc(F)c2)C1 (stereo not shown),1 to 25
9,CC(C)Oc1ccc(-c2csc3c(O)nc(-c4nccn4C)nc23)cn1,76 to 100

# System: IL6 production in RAW 264.7 macrophage cell line
# Assay: Mouse IL6 quantification assay (LPS-stimulated macrophages, ELISA)
# Assay type: cell-based
# Conditions: RAW264.7, RAW 264.7 murine leukemia virus transformed macrophage cell lines, LPS stimulation, read-out: IL-6 % Inhibition at 30 μM
row,Structure (SMILES),inhibition at 30 µM [%]
1,O=C(CCc1cnn(-c2ccccc2)c1)Nc1nnc(-c2ccccc2)[nH]1,26 to 50
2,CN(CCc1ccncc1)C(=O)c1csc2c(O)nc(N)nc12,1 to 25
3,O=C(c1csc2c(O)nc(-c3ccccn3)nc12)N1CCC(c2ccccc2)CC1,76 to 100
4,COC1CC(CNc2nc(-c3ccccn3)nc3scc(-c4ccccc4)c23)CCC1OCC(N)=O (stereo not shown),76 to 100
5,OCCn1ncc2c1CCCC2Nc1nc(-c2ccccn2)nc2scc(-c3ccccc3)c12 (stereo not shown),26 to 50
6,CC(CC(=O)N1CCOCC1)c1nc(-c2ccccn2)nc2scc(-c3ccccc3)c12 (stereo not shown),1 to 25
7,COc1cncc(CCNC(=O)c2csc3nc(-c4ccccn4)nc(N4CCOCC4)c23)c1,1 to 25
8,O=C(c1csc2c(O)nc(-c3cccnc3)nc12)N1CCNC(Cc2cccc(F)c2)C1 (stereo not shown),26 to 50
9,CC(C)Oc1ccc(-c2csc3c(O)nc(-c4nccn4C)nc23)cn1,76 to 100

# Molecular target: KRas G12D/Q61H double mutant (Homo sapiens (Human), UniProt P01116, G12D/Q61H)
# Assay: Ras GTP binding domain inhibition assay (labeled GTP)
# Conditions: 20 μM compound
# Method in brief: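 Fluorescence read-out of Cy3-/Cy5-GTP remaining bound to nickel-immobilized His-KRas after washes. Protein was coated overnight at 4° C, then exposed to compound for 3 h at room temperature before a 45 min labeled-GTP incubation.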
# Chain of KRas G12D/Q61H double mutant (P01116-2 other isoform, or with tags, fused parts or gaps G12D/Q61H): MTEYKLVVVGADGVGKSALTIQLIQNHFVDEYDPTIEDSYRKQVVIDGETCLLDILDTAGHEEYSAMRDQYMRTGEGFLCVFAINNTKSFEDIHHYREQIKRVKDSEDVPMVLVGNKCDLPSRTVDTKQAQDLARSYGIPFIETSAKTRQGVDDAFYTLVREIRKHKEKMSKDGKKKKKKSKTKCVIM
row,Structure (SMILES),% Inhibition at 20 μM KRas G12D Q61H
1,COc1cccc(OCCn2c(CN3CCCCC3)nc3ccccc32)c1 [drawing 3033],B (B = 25-50% inhibition)

# Same assay, conditions: 20 μM compound; KRas G12D/Q61H double mutant
row,Structure (SMILES),"% Inhibition at 20 μM of K-Ras mutant and wild-type protein, KRas G12D Q61H"
1,O=C(Cc1ccc2c(c1)OCCO2)Nc1nc(-c2ccccn2)cs1 [drawing 3247],A (1-25% inhibition)

# Same assay, conditions: 20 μM compound; KRas G12D/Q61H double mutant; read-out: % Inhibition at 20 μM of K-Ras mutant and wild-type protein, KRas G12D Q61H
row,Structure (SMILES),inhibition at 20 µM [%]
1,O=C(Cc1ccc2c(c1)OCCO2)Nc1nc(-c2ccccn2)cs1 [drawing 3246],1 to 25

# Same assay, conditions: 20 μM compound; read-out: % Inhibition at 20 μM KRas G12D Q61H
row,Structure (SMILES),inhibition at 20 µM [%]
1,CC1CCN(C(=O)c2csc3c(O)nc(N)nc23)CC1 [drawing 2658],1 to 25
2,COCC1CCN(C(=O)c2csc3c(O)nc(N)nc23)CC1 [drawing 2659],1 to 25
3,CCOCCC1CCN(C(=O)c2csc3c(O)nc(N)nc23)CC1 [drawing 2660],1 to 25
4,COCCCC1CCN(C(=O)c2csc3c(O)nc(N)nc23)CC1 [drawing 2661],25 to 50
5,Nc1nc(O)c2scc(C(=O)N3CCC(N4CCOCC4)CC3)c2n1 [drawing 2662],1 to 25
6,Nc1nc(O)c2scc(C(=O)N3CCC(N4CCCC4=O)CC3)c2n1 [drawing 2663],25 to 50
7,CCOC(=O)NC1CCN(C(=O)c2csc3c(O)nc(N)nc23)CC1 [drawing 2667],1 to 25
8,Nc1nc(O)c2scc(C(=O)N(CCO)CCOCCO)c2n1 [drawing 2669],1 to 25
9,Nc1nc(O)c2scc(C(=O)NCCc3cccnc3)c2n1 [drawing 2670],1 to 25
10,Nc1nc(O)c2scc(C(=O)N3CCc4ccccc4CC3)c2n1 [drawing 2671],1 to 25
11,COc1cc2c(cc1OC)CCN(C(=O)c1csc3c(O)nc(N)nc13)CC2 [drawing 2672],25 to 50
12,CC1CCN(C(=O)c2csc3c(O)nc(-c4ccccn4)nc23)CC1 [drawing 2674],51 to 75
13,COCC1CCN(C(=O)c2csc3c(O)nc(-c4ccccn4)nc23)CC1 [drawing 2675],25 to 50
14,CCOCCC1CCN(C(=O)c2csc3c(O)nc(-c4ccccn4)nc23)CC1 [drawing 2676],51 to 75
15,COCCCC1CCN(C(=O)c2csc3c(O)nc(-c4ccccn4)nc23)CC1 [drawing 2677],51 to 75
16,O=C(c1csc2c(O)nc(-c3ccccn3)nc12)N1CCC(N2CCOCC2)CC1 [drawing 2678],25 to 50
17,CCOC(=O)NC1CCN(C(=O)c2csc3c(O)nc(-c4ccccn4)nc23)CC1 [drawing 2685],51 to 75
18,COCCOCCN(C)C(=O)c1csc2c(O)nc(-c3ccccn3)nc12 [drawing 2686],51 to 75
19,CN(CCc1ccncc1)C(=O)c1csc2c(O)nc(-c3ccccn3)nc12 [drawing 2688],25 to 50
20,O=C(c1csc2c(O)nc(-c3ccccn3)nc12)N1CCc2ccccc2CC1 [drawing 2690],25 to 50

row,Structure (SMILES),inhibition at 20 µM [%]
1,COc1cc2c(cc1OC)CCN(C(=O)c1csc3c(O)nc(-c4ccccn4)nc13)CC2 [drawing 2691],51 to 75
2,Nc1nc(O)c2scc(-c3ccccc3)c2n1 [drawing 2692],1 to 25
3,Nc1nc(O)c2scc(-c3ccccc3Cl)c2n1 [drawing 2693],1 to 25
4,Oc1nc(-c2ccccn2)nc2[nH]cnc12 [drawing 2696],25 to 50
5,Oc1nc(-c2ccccn2)nc2c1ncn2-c1ccccn1 [drawing 2698],25 to 50
6,COc1ccc(COCC(=O)Nc2ccnc(-c3ccccn3)n2)cn1 [drawing 2699],25 to 50
7,N#Cc1ccc(CC(=O)Nc2ccnc(-c3ccccn3)n2)cc1 [drawing 2700],25 to 50
8,Brc1csc2nc(-c3ccccn3)nc(N3CCOCC3)c12 [drawing 2701],1 to 25
9,c1ccc(-c2nc(N3CCOCC3)c3ccsc3n2)nc1 [drawing 2702],51 to 75
10,CCN(CC)CCC(C)Nc1nc(-c2ccccn2)nc2sccc12 (stereo not shown) [drawing 2706],25 to 50
11,Clc1csc2nc(-c3ccccn3)nc(N3CCOCC3)c12 [drawing 2707],1 to 25
12,Oc1nc(-c2ccccn2)nc2c(C3CCNCC3)csc12 [drawing 2711],51 to 75
13,COc1ccccc1N1CCN(C(=O)c2csc3c(O)nc(-c4ccccn4)nc23)CC1 [drawing 2712],25 to 50
14,O=C(c1csc2c(O)nc(-c3ccccn3)nc12)N1CCN(c2ccccc2Cl)CC1 [drawing 2718],51 to 75
15,O=C(c1csc2c(O)nc(-c3ccccn3)nc12)N1CCN(c2cccc(Cl)c2)CC1 [drawing 2719],25 to 50
16,O=C(c1csc2c(O)nc(-c3ccccn3)nc12)N1CCN(c2ccccc2F)CC1 [drawing 2721],25 to 50
17,N#Cc1ccccc1N1CCN(C(=O)c2csc3c(O)nc(-c4ccccn4)nc23)CC1 [drawing 2722],1 to 25
18,COc1ccc(CN2CCN(C(=O)c3csc4c(O)nc(-c5ccccn5)nc34)CC2)cc1 [drawing 2725],25 to 50
19,COc1cccc(C2CN(C(=O)c3csc4c(O)nc(-c5ccccn5)nc34)CCO2)c1 (stereo not shown) [drawing 2729],25 to 50
20,O=C(c1csc2c(O)nc(-c3ccccn3)nc12)N1CCOC(c2ccc(Cl)cc2)C1 (stereo not shown) [drawing 2730],25 to 50

row,Structure (SMILES),inhibition at 20 µM [%]
1,O=C(c1csc2c(O)nc(-c3ccccn3)nc12)N1CCNC(c2cccc(F)c2)C1 (stereo not shown) [drawing 2737],25 to 50
2,FC(F)(F)c1csc2nc(-c3ccccn3)nc(N3CCOCC3)c12 [drawing 2741],1 to 25
3,O=C(NCCc1ccc(O)nc1)c1csc2nc(-c3ccccn3)nc(N3CCOCC3)c12 [drawing 2809],1 to 25
4,O=C(NCCc1cnc(O)nc1)c1csc2nc(-c3ccccn3)nc(N3CCOCC3)c12 [drawing 2810],1 to 25
5,CS(=O)(=O)CCCNC(=O)c1csc2nc(-c3ccccn3)nc(N3CCOCC3)c12 [drawing 2811],1 to 25
6,COCCN(CCOC)c1nc(-c2ccccn2)nc2scc(C(=O)NCCc3cnc(O)nc3)c12 [drawing 2812],1 to 25
7,COc1cc(COCC(=O)Nc2ccnc(-c3ccccn3)n2)ccn1 [drawing 2813],25 to 50
8,Cc1cnc(-c2ccccn2)nc1NC(=O)Cc1ccc(C#N)cc1 [drawing 2814],1 to 25
9,Cc1cnc(-c2ccccn2)nc1NC(=O)COCc1ccc(C#N)cc1 [drawing 2815],25 to 50
10,Cc1cnc(-c2ccccn2)nc1NC(=O)COCc1ccnc(O)c1 [drawing 2816],25 to 50
11,N#Cc1ccc(CC(=O)Nc2nc(-c3ccccn3)nc3sccc23)cc1 [drawing 2817],1 to 25
12,COc1ccc2c(c1)CCC2C(=O)Nc1nc(-c2ccccn2)nc2sccc12 (stereo not shown) [drawing 2818],1 to 25
13,N#Cc1csc2nc(-c3ccccn3)nc(N3CCOCC3)c12 [drawing 2819],25 to 50
14,COc1cc(N2CCN(C(=O)c3csc4c(O)nc(-c5ccccn5)nc34)CC2)ccc1O [drawing 2820],1 to 25
15,Nc1nc(-c2ccccn2)nc2sccc12 [drawing 2821],25 to 50
16,Nc1nc(-c2ccccn2)nc2scc(-c3ccccc3)c12 [drawing 2822],1 to 25
17,COC(=O)c1csc2c(O)nc(-c3ccccn3)nc12 [drawing 2823],1 to 25
18,COc1cnc(CNC(=O)Cn2cnc3nc(-c4ccccn4)nc(N4CCOCC4)c32)[nH]c1=O [drawing 2824],1 to 25
19,COc1cccc(OCCn2c(CN3CCCCC3)nc3ccccc32)c1 [drawing 3032],25 to 50

# Same assay, conditions: at 20 μM; read-out: KRas G12D Q61H % Inh.
row,Structure (SMILES),inhibition at 20 µM [%]
1,Oc1nc(-c2ccccn2)nc2c(-c3cnc4ccccc4c3)csc12 [drawing 3780],25 to 50
2,Cc1cc2nc(-c3ccccn3)nc(O)c2s1 [drawing 3791],51 to 75
3,COC(=O)c1c(C)sc2nc(-c3ccccn3)nc(N)c12 [drawing 3804],51 to 75
4,COc1cnc(CNC(=O)c2c(C)sc3c(O)nc(-c4ccccn4)nc23)[nH]c1=O [drawing 3841],0
5,O=C(c1csc2c(O)nc(-c3ccccn3)nc12)N1CCNC(c2ccc(Cl)cc2)C1 (stereo not shown) [drawing 3843],25 to 50
